Experimental data reported in ChEMBL document CHEMBL5346927, “Discovery of a novel 1H-pyrazole- [3,4-b] pyridine-based lysine demethylase 5B inhibitor with potential anti-prostate cancer activity that perturbs the phosphoinositide 3-kinase/AKT pathway” (Eur J Med Chem, 2023).
Values belong to the molecule of their own block, whether it stands above or below them. Calls of active or inactive are those of the source. No cut-off for these calls is given here.

Key:
[1] = target: T1, Lysine-specific demethylase 5B (Homo sapiens, UniProt Q9UGL1); assay: Inhibition of KDM5B (unknown origin)
PC-3 [2] = assay: Antitumor activity against human PC-3 cells assessed as inhibition of cell proliferation incubated for 72 hrs by MTT assay; assay type: functional, cell-based; details: PC-3, 72 h
MCF7 = assay: Antitumor activity against human MCF7 cells assessed as inhibition of cell proliferation incubated for 72 hrs by MTT assay; assay type: functional, cell-based; details: MCF7, 72 h
HepG2 = assay: Antitumor activity against human HepG2 cells assessed as inhibition of cell proliferation incubated for 72 hrs by MTT assay; assay type: functional, cell-based; details: HepG2, 72 h
MGC-803 = assay: Antitumor activity against human MGC-803 cells assessed as inhibition of cell proliferation incubated for 72 hrs by MTT assay; assay type: functional, cell-based; details: MGC-803, 72 h
LNCaP = assay: Antiproliferative activity against human LNCaP cells assessed as inhibition of cell proliferation incubated for 72 hrs by MTT assay; assay type: functional, cell-based
DU-145 = assay: Antiproliferative activity against human DU-145 cells assessed as inhibition of cell proliferation incubated for 72 hrs by MTT assay; assay type: functional, cell-based; details: DU-145, 72 h
PC-3 [3] = assay: Inhibition of PI3K/AKT pathway in human PC-3 cells assessed as decrease in AKT phosphorylation at Ser473 residue at 20 uM by Western blot analysis; assay type: cell-based
PC-3 [4] = assay: Inhibition of PI3K/AKT pathway in human PC-3 cells assessed as decrease in AKT phosphorylation at Thr308 residue at 20 uM by Western blot analysis; assay type: cell-based
PC-3 [5] = assay: Inhibition of PI3K/AKT pathway in human PC-3 cells assessed as decrease in P110alpha level at 20 uM by Western blot analysis; assay type: cell-based
PC-3 [6] = assay: Inhibition of PI3K/AKT pathway in human PC-3 cells assessed as decrease in P85 level at 20 uM by Western blot analysis; assay type: cell-based
PC-3 [7] = assay: Antitumor activity against human PC-3 cells xenografted in BALB/C nude mice assessed as decrease in tumor volume at 25 to 50 mg/kg, IG administered for 25 days; assay type: functional, organism-based; details: dose 25-50 mg/kg, time 25.0 day
PC-3 [8] = assay: Antitumor activity against human PC-3 cells xenografted in BALB/C nude mice assessed as decrease in tumor weight at 25 mg/kg, IG administered for 25 days; assay type: functional, organism-based; details: time 25.0 day
[9] = Toxicity in BALB/C nude mouse xenografted with human PC-3 cells assessed as effect on body weight at 25 mg/kg, IG administered for 25 days; assay type: organism-based; details: in vivo, po, 600 h, time 25 day
[10] = Toxicity in BALB/C nude mouse xenografted with human PC-3 cells assessed as indistinct prostate tube wall at 25 mg/kg, IG administered for 25 days by H&E staining based analysis; assay type: organism-based; details: in vivo, po, 600 h, time 25 day
[11] = Toxicity in BALB/C nude mouse xenografted with human PC-3 cells assessed as reduction in prostate gland cells at 25 mg/kg, IG administered for 25 days by H&E staining based analysis; assay type: organism-based; details: in vivo, po, 600 h, time 25 day
[12] = Toxicity in BALB/C nude mouse xenografted with human PC-3 cells assessed as heart damage at 25 mg/kg, IG administered for 25 days by H&E staining based analysis; assay type: organism-based; details: in vivo, po, 600 h, time 25 day
[13] = Toxicity in BALB/C nude mouse xenografted with human PC-3 cells assessed as liver damage at 25 mg/kg, IG administered for 25 days by H&E staining based analysis; assay type: organism-based; details: in vivo, po, 600 h, time 25 day
[14] = Toxicity in BALB/C nude mouse xenografted with human PC-3 cells assessed as spleen damage at 25 mg/kg, IG administered for 25 days by H&E staining based analysis; assay type: organism-based; details: in vivo, po, 600 h, time 25 day
[15] = Toxicity in BALB/C nude mouse xenografted with human PC-3 cells assessed as irregular fissures at 25 mg/kg, IG administered for 25 days by H&E staining based analysis; assay type: organism-based; details: in vivo, po, 600 h, time 25 day
[16] = Toxicity in BALB/C nude mouse xenografted with human PC-3 cells assessed as decrease in cell density at 25 mg/kg, IG administered for 25 days by H&E staining based analysis; assay type: organism-based; details: in vivo, po, 600 h, time 25 day
[17] = target: Lysine-specific histone demethylase 1A (Homo sapiens) (UniProt O60341); assay: Inhibition of LSD1 (unknown origin) at 10 uM relative to control
[18] = target: S-phase kinase-associated protein 2 (Homo sapiens) (UniProt Q13309); assay: Inhibition of SKP2 (unknown origin) at 10 uM relative to control
[19] = target: Ubiquitin carboxyl-terminal hydrolase 7 (Homo sapiens) (UniProt Q93009); assay: Inhibition of USP7 (unknown origin) at 10 uM relative to control
[20] = target: T1, Lysine-specific demethylase 5B; assay: Inhibition of KDM5B (unknown origin) at 10 uM relative to control
[21] = target: Bromodomain-containing protein 4 (Homo sapiens) (UniProt O60885); assay: Inhibition of BRD4 (unknown origin) at 10 uM relative to control
[22] = target: T2, Protein deacetylase HDAC6 (Homo sapiens) (UniProt Q9UBN7); assay: Inhibition of HDAC6 (unknown origin) at 10 uM relative to control
T2 sequence (whole entry): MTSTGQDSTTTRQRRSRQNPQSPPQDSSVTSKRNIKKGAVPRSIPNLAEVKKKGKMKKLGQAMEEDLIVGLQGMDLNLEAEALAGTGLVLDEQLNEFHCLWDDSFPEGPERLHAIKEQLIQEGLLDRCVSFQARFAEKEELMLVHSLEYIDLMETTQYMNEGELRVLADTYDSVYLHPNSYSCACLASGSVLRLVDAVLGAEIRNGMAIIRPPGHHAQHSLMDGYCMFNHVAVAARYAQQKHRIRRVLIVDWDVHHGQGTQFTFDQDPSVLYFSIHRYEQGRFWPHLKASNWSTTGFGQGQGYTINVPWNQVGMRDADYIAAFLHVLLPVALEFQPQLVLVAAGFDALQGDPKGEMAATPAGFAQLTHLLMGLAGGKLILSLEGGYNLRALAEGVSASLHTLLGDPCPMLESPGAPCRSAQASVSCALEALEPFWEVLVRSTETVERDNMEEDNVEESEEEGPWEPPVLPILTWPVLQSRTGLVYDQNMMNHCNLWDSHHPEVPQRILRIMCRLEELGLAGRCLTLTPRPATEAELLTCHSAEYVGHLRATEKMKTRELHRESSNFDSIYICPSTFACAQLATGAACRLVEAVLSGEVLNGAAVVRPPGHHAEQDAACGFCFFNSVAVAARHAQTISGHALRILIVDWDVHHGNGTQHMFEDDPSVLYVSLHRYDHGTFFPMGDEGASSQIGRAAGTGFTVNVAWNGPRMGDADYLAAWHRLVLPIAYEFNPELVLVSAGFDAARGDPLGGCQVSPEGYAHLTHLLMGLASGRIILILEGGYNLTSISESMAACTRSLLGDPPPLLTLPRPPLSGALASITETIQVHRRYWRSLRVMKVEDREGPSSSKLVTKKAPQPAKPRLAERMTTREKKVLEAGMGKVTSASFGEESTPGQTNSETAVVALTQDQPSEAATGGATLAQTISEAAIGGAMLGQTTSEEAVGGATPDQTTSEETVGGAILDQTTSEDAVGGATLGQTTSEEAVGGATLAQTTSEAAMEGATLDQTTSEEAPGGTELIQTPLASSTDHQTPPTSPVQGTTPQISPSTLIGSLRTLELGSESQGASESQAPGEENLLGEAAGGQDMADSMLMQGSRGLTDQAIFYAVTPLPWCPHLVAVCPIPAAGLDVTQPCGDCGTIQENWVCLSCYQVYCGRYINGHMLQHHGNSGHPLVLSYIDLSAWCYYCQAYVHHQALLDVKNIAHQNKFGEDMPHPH

T1 sequence (Q9UGL1 whole entry): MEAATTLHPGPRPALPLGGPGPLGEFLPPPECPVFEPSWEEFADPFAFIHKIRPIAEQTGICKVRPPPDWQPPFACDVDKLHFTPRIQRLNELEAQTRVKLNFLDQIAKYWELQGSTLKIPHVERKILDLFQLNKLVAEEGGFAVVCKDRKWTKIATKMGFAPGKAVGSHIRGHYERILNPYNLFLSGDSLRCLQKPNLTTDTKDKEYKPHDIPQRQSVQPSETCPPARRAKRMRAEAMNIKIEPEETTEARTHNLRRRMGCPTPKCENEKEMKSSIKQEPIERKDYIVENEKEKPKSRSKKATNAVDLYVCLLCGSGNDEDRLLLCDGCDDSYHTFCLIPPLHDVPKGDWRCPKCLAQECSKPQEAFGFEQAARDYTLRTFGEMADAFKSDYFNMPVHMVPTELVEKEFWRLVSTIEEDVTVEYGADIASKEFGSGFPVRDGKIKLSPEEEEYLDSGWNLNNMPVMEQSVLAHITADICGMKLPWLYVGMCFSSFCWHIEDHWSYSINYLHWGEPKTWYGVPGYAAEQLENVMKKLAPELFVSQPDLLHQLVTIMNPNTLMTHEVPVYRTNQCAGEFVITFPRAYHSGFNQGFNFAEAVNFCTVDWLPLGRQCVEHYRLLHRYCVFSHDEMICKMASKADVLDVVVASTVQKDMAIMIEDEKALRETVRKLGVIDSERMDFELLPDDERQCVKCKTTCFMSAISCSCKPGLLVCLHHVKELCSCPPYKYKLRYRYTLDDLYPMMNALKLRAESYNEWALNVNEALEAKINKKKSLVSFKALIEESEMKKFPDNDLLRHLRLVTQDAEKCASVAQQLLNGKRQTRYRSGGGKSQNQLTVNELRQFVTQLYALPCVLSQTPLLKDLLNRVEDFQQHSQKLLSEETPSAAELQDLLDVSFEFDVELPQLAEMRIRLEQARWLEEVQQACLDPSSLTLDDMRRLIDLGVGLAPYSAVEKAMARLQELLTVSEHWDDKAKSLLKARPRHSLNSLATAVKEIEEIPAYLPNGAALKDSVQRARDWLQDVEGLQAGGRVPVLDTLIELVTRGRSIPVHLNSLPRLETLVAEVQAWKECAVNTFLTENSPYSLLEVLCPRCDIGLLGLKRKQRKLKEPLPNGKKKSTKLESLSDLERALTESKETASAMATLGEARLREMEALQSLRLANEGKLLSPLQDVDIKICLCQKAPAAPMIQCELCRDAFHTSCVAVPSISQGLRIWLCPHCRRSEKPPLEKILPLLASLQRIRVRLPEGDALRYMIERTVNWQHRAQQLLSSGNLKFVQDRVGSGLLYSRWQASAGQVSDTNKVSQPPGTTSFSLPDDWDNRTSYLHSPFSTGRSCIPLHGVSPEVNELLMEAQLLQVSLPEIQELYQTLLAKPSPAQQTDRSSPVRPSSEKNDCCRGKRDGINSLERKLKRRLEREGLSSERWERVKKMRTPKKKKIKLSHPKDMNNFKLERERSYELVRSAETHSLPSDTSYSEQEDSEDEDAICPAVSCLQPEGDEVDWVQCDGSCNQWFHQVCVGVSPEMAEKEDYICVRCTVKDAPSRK
Ubiquitin carboxyl-terminal hydrolase 7 (Homo sapiens), sequence (Q93009 whole entry, looked up): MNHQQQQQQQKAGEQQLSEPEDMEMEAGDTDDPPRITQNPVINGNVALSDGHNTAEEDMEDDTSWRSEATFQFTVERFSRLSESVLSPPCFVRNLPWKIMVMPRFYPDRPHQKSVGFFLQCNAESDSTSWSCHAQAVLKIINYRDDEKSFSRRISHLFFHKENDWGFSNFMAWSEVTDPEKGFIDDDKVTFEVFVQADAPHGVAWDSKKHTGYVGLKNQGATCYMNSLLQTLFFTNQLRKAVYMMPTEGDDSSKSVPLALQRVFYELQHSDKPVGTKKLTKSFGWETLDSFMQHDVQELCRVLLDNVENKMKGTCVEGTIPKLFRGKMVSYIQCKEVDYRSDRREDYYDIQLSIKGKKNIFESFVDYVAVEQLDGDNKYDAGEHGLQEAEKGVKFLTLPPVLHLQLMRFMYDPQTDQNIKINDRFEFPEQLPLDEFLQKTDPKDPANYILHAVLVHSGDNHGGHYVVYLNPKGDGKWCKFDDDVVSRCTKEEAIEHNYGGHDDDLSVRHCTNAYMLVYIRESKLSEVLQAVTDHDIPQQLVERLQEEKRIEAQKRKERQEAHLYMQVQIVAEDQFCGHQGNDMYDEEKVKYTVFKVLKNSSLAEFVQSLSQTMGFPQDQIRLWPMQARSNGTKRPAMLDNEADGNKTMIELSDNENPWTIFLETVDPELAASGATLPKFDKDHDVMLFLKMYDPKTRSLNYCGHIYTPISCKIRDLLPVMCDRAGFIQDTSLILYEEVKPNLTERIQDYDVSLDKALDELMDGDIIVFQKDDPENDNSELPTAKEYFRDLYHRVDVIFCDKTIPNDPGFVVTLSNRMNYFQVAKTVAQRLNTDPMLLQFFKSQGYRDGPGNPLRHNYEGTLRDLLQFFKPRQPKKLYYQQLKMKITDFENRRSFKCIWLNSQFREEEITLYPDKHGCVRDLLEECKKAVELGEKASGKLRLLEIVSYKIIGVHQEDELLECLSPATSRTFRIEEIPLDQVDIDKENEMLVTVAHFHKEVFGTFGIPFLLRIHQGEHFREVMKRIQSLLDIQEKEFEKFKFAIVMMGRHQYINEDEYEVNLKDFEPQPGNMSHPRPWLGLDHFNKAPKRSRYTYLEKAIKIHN
S-phase kinase-associated protein 2 (Homo sapiens), sequence (Q13309 whole entry): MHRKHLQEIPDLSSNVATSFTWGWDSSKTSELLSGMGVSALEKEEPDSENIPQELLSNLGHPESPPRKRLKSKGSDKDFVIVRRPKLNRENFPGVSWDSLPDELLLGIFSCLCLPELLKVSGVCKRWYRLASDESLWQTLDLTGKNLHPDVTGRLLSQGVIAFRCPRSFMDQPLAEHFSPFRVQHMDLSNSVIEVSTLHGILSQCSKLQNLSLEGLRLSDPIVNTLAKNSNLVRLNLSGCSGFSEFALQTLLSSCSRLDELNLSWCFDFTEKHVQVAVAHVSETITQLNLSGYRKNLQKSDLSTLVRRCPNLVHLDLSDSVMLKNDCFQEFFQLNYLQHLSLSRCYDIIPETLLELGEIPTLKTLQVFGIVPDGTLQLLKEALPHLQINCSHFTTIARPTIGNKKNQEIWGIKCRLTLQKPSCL

IC50 [1]: 0.011 µM
IC50 (PC-3 [2]): 26.7 µM
IC50 (MCF7): 35.4 µM
IC50 (HepG2): 42.6 µM
IC50 (MGC-803): 33.7 µM
IC50 (LNCaP): 29.6 µM
IC50 (DU-145): 35.9 µM
Compound: CC(C)c1c(-c2ccccc2)[nH]c2c(C#N)cnn2c1=O
inhibition (PC-3 [3]): Active
inhibition (PC-3 [4]): Active
inhibition (PC-3 [5]): Active
inhibition (PC-3 [6]): Active

Compound: COc1cccc2c1C(=O)c1c(O)c3c(c(O)c1C2=O)C[C@@](O)(C(=O)CO)C[C@@H]3O[C@H]1C[C@H](N)[C@H](O)[C@H](C)O1 [DOXORUBICIN]
Activity (PC-3 [7]): Active
Activity (PC-3 [8]): Active
Activity [9]: Toxic
Activity [10]: Toxic
Activity [11]: Toxic
Activity [12]: Toxic
Activity [13]: Toxic
Activity [14]: Toxic
Activity [15]: Toxic
Activity [16]: Toxic

inhibition [17]: 31%
inhibition [18]: 11%
inhibition [19]: 16%
inhibition [20]: 56%
inhibition [21]: 9%
inhibition [22]: 27%
Compound: CC(C)n1ncc2c(C(=O)NCc3cn(Cc4ccccc4)nn3)cccc21
